Reference: patent publication US11191820B2, “Method for inducing early T memory response with short peptides anti-tumor vaccine” (OSE IMMUNOTHERAPEUTICS, priority 2015, dated 2021)

Tests used:
Type in all cases: in vivo, human
[1] = test system: central memory T cells; experiment: Cultured IFN-γ ELISPOT after 10-day in vitro stimulation of PBMC, phase 1/2 NSCLC trial of OSE-2101; design: key to net SFC of vaccine positive CTL responses: —, indicates SFC response did not meet criteria and vaccine response was negative; details: for Mean SFC / No. Positive Responses: 6 NSCLC patients
Experimental: (§1) Clinical study design. Both trials were designed as phase 1/2, open label, multi-center, single dose, multiple administration studies to evaluate the safety and immunogenicity of the OSE-2101 immunotherapy. Patients were treated with 1 ml OSE-2101 every 3 weeks for a total of six doses. Each dose was administered subcutaneously in the same vicinity in the deltoid or upper thigh region, or at a contralateral site if local side-effects were observed. The study duration for each completed patient was 18 weeks. Clinical responses or patient survival were not measured in either phase 1/2 studies.
(§2) Clinical sample processing. Blood or leukapheresis product was obtained from patients at the pre-treatment, the Week 9 and Week 18 time points, 3 weeks after the third and sixth dose of OSE-2101 respectively. Peripheral blood mononuclear cells (PBMC) were isolated from samples within 24 hours of collection using a FICOLL-PAQUE density gradient and cryopreserved in containers designed to ensure optimal freezing (Mr. Frosty, Nalgene). For use, cells were rapidly thawed at 37° C. then transferred to human AB serum-containing medium for work-up.
(§3) Measurement of central T memory cells responses and T effector memory cells. The CTL responses in 16 total patients (10 colon and six NSCLC) were monitored for CTL responses against each epitope and against the wild-type epitope of epitopes analogs. For each patient, the pre-treatment, Week 9 and Week 18 time points were batch-tested in the same experiment to allow pre- versus post-treatment response comparison in the same experiment. Central T memory cells responses were measured using an IFN-γ enzyme-linked immunospot (cultured ELISPOT) assay following in vitro stimulation of PBMC for 10 days with each vaccine epitope. Briefly, PBMC from each time point were stimulated on day 0 with 10 μg/ml of each epitope individually in replicate in 48-well culture plates (2×10^6 PBMC/well). All cultures were fed with rIL-2 (Endogen, Woburn, Mass.; 10 U/ml final concentration) on days 1, 4 and 7. Ten days after initiation of culture, cells were harvested and tested for activity against specific vaccine peptides and corresponding wild-type peptides of vaccine analogs in the T memory ELISPOT assay. Cells were tested in Millipore IP 96-well plates pre-coated with mouse anti-human IFN-γ antibody (Mabtech USA, Cincinnati, Ohio). Five×10^4 cells and 1.25×10^4 cells from each culture were plated in triplicate wells together with 10^5 irradiated autologous PBMC and 10 μg/ml peptide. As a control, CTL were also tested against an irrelevant HLA-A2.1-binding HBV peptide. After 20 hours incubation, T memory ELISPOT plates were developed by performing sequential incubations with biotinylated anti-human IFN-γ antibody (Mabtech USA), Avidin-Peroxidase Complex (APC, Vector Laboratories, Burlingame, Calif.), and 3-amino-9-ethyl carbazole (AEC) substrate (Sigma Aldrich, St. Louis, Mo.). Spot-forming cells (SFC) were enumerated using a computer-assisted image analysis system (Zeiss KS ELISPOT Reader, Carl Zeiss MicroImaging, Thornwood, N.J.). Data is reported as the net SFC per 5×10^4 cells after subtracting spots induced with the irrelevant HBV peptide.

[2] = test system: central memory T cells; experiment: Central memory T cell cultured ELISPOT, phase 2 trial in advanced NSCLC
Experimental: CTL Immune responses measured though cultured Elispot. The immunogenicity was measured in Phase 2 clinical trial on cryopreserved PBMC from each test sample were thawed in 5% human culture medium (RPMI-1640 medium with 25 mM HEPES, supplemented with 5% human AB serum, 4 mM L-glutamine, 0.5 mM sodium pyruvate, 0.1 mM MEM non-essential amino acids, 100 μg/ml streptomycin, and 100 U/ml penicillin) containing 30 μg/ml DNAase. After centrifugation for 5 minutes at 1200 rpm, the cell pellets were resuspended in 5% human culture medium and washed 2 times. For the central Memory T cell cultured ELISPOT assay, 2×10^6/ml PBMC were placed in replicate wells in a 48-well plates and stimulated for 10 days with 10 μg/ml of each peptide. As a positive control, PBMC were also stimulated with a pool of recall viral peptides. Human rIL2 (10 U/ml) was added to the peptide-stimulated cultures at day 1, day 4 and day 7. After 10 days the stimulated cells were harvested and plated at a concentration of 5×10^4/well. Assay wells also received irradiated autologous PBMC (1×10^5/well) and 10 μg/ml peptide, either the vaccine peptide, irrelevant peptide or positive control peptides. Cells stimulated in vitro with each analog epitope were also tested against the corresponding wild-type epitope.
Data analysis and acceptance criteria. Mean and standard deviation (SD) of spots in replicate wells were calculated in all assays by transferring raw ELISPOT data from each experiment to an Excel-based computer program. Positive vaccine-induced T-cell responses were determined according to the criteria described below.
Acceptance Criteria for peptide-Induced specific T-cell response through central memory T cells: The positive criteria for CTL responses used in the phase 2 trial was identical to the criteria in the phase 1/2 trials which was established prospectively after analyzing the variability of pre-treatment responses in patients against each vaccine epitope and the irrelevant HBV control epitope. A positive peptide-induced CTL/T memory response to a given epitope met all of the following conditions: 1) was greater than 5 SFC above the irrelevant epitope response, 2) was greater than the mean SFC of the irrelevant epitope response, plus 2 SD, and 3) was two-fold greater than the SFC response in the pre-vaccination sample from the same patient, plus 2 SD. The inclusion of “plus two standard deviations” was used to accommodate the assay variability and served to increase the criteria stringency.

[3] = test system: central memory T cells; experiment: Cultured IFN-γ ELISPOT after 10-day in vitro stimulation of PBMC, phase 1/2 colon cancer trial of OSE-2101; design: key to net SFC of vaccine positive CTL responses: —, indicates SFC response did not meet criteria and vaccine response was negative; details: for Mean SFC: 10 colon patients
Experimental: as §1, §2, §3

## YLQLVFGIEV [MAGE2.157 WT]
[1]; Week 9
  Mean SFC: 30.0 SFC per 50,000 cells
  No. Positive Responses: 2
[1]; Week 18
  Mean SFC: 66.8 SFC per 50,000 cells
  No. Positive Responses: 2
[1]; NSCLC patient 201, Week 9
  net SFC of vaccine positive CTL responses: —
[1]; NSCLC patient 201, Week 18
  net SFC of vaccine positive CTL responses: —
[1]; NSCLC patient 502, Week 9
  net SFC of vaccine positive CTL responses: 9.3 SFC per 50,000 cells
[1]; NSCLC patient 502, Week 18
  net SFC of vaccine positive CTL responses: —
[1]; NSCLC patient 504, Week 9
  net SFC of vaccine positive CTL responses: 50.7 SFC per 50,000 cells
[1]; NSCLC patient 504, Week 18
  net SFC of vaccine positive CTL responses: 124.7 SFC per 50,000 cells
[1]; NSCLC patient 505, Week 9
  net SFC of vaccine positive CTL responses: —
[1]; NSCLC patient 505, Week 18
  net SFC of vaccine positive CTL responses: —
[1]; NSCLC patient 532, Week 9
  net SFC of vaccine positive CTL responses: —
[1]; NSCLC patient 532, Week 18
  net SFC of vaccine positive CTL responses: —
[1]; NSCLC patient 651, Week 9
  net SFC of vaccine positive CTL responses: —
[1]; NSCLC patient 651, Week 18
  net SFC of vaccine positive CTL responses: 9.0 SFC per 50,000 cells
[2]; phase 2, month 9
  % of patients with positive CTL/central memory T cell response: 57%
  patients with positive CTL/central memory T cell response / patients tested: 4/7
[2]; phase 2, month 12
  % of patients with positive CTL/central memory T cell response: 50%
  patients with positive CTL/central memory T cell response / patients tested: 2/4
[2]; phase 2, week 9
  % of patients with positive CTL/central memory T cell response: 27%
  patients with positive CTL/central memory T cell response / patients tested: 9/33
[2]; phase 2, week 18
  % of patients with positive CTL/central memory T cell response: 28%
  patients with positive CTL/central memory T cell response / patients tested: 9/32
[2]; phase 2, week 30
  % of patients with positive CTL/central memory T cell response: 43%
  patients with positive CTL/central memory T cell response / patients tested: 10/23
[3]; Week 9
  Mean SFC: 246.0 SFC per 50,000 cells
[3]; Week 18
  Mean SFC: 418.1 SFC per 50,000 cells
[3]; colon patient 551, Week 9
  net SFC of vaccine positive CTL responses: —
[3]; colon patient 551, Week 18
  net SFC of vaccine positive CTL responses: 45.7 SFC per 50,000 cells
[3]; colon patient 601, Week 9
  net SFC of vaccine positive CTL responses: —
[3]; colon patient 601, Week 18
  net SFC of vaccine positive CTL responses: —
[3]; colon patient 602, Week 9
  net SFC of vaccine positive CTL responses: —
[3]; colon patient 602, Week 18
  net SFC of vaccine positive CTL responses: —
[3]; colon patient 603, Week 9
  net SFC of vaccine positive CTL responses: 320.0 SFC per 50,000 cells
[3]; colon patient 603, Week 18
  net SFC of vaccine positive CTL responses: —
[3]; colon patient 604, Week 9
  net SFC of vaccine positive CTL responses: —
[3]; colon patient 604, Week 18
  net SFC of vaccine positive CTL responses: —
[3]; colon patient 605, Week 9
  net SFC of vaccine positive CTL responses: —
[3]; colon patient 605, Week 18
  net SFC of vaccine positive CTL responses: —
[3]; colon patient 606, Week 9
  net SFC of vaccine positive CTL responses: —
[3]; colon patient 606, Week 18
  net SFC of vaccine positive CTL responses: 24.7 SFC per 50,000 cells
[3]; colon patient 607, Week 9
  net SFC of vaccine positive CTL responses: 172.0 SFC per 50,000 cells
[3]; colon patient 607, Week 18
  net SFC of vaccine positive CTL responses: 1184.0 SFC per 50,000 cells
[3]; colon patient 608, Week 9
  net SFC of vaccine positive CTL responses: —
[3]; colon patient 608, Week 18
  net SFC of vaccine positive CTL responses: —
[3]; colon patient 609, Week 9
  net SFC of vaccine positive CTL responses: —
[3]; colon patient 609, Week 18
  net SFC of vaccine positive CTL responses: —

## KLBPVQLWV [p53.139L2B3 A]
[1]; Week 9
  Mean SFC: 25.9 SFC per 50,000 cells
  No. Positive Responses: 3
[1]; Week 18
  Mean SFC: 62.0 SFC per 50,000 cells
  No. Positive Responses: 4
[1]; NSCLC patient 201, Week 9
  net SFC of vaccine positive CTL responses: —
[1]; NSCLC patient 201, Week 18
  net SFC of vaccine positive CTL responses: —
[1]; NSCLC patient 502, Week 9
  net SFC of vaccine positive CTL responses: —
[1]; NSCLC patient 502, Week 18
  net SFC of vaccine positive CTL responses: —
[1]; NSCLC patient 504, Week 9
  net SFC of vaccine positive CTL responses: 18.7 SFC per 50,000 cells
[1]; NSCLC patient 504, Week 18
  net SFC of vaccine positive CTL responses: 90.3 SFC per 50,000 cells
[1]; NSCLC patient 505, Week 9
  net SFC of vaccine positive CTL responses: —
[1]; NSCLC patient 505, Week 18
  net SFC of vaccine positive CTL responses: 20.3 SFC per 50,000 cells
[1]; NSCLC patient 532, Week 9
  net SFC of vaccine positive CTL responses: 53.0 SFC per 50,000 cells
[1]; NSCLC patient 532, Week 18
  net SFC of vaccine positive CTL responses: 117.3 SFC per 50,000 cells
[1]; NSCLC patient 651, Week 9
  net SFC of vaccine positive CTL responses: 6.0 SFC per 50,000 cells
[1]; NSCLC patient 651, Week 18
  net SFC of vaccine positive CTL responses: 20.0 SFC per 50,000 cells
[2]; phase 2, month 9
  % of patients with positive CTL/central memory T cell response: 29%
  patients with positive CTL/central memory T cell response / patients tested: 2/7
[2]; phase 2, month 12
  % of patients with positive CTL/central memory T cell response: 50%
  patients with positive CTL/central memory T cell response / patients tested: 2/4
[2]; phase 2, week 9
  % of patients with positive CTL/central memory T cell response: 55%
  patients with positive CTL/central memory T cell response / patients tested: 6/11
[2]; phase 2, week 18
  % of patients with positive CTL/central memory T cell response: 36%
  patients with positive CTL/central memory T cell response / patients tested: 4/11
[2]; phase 2, week 30
  % of patients with positive CTL/central memory T cell response: 50%
  patients with positive CTL/central memory T cell response / patients tested: 3/6
[3]; Week 9
  Mean SFC: 70.5 SFC per 50,000 cells
[3]; Week 18
  Mean SFC: 89.4 SFC per 50,000 cells
[3]; colon patient 551, Week 9
  net SFC of vaccine positive CTL responses: —
[3]; colon patient 551, Week 18
  net SFC of vaccine positive CTL responses: —
[3]; colon patient 601, Week 9
  net SFC of vaccine positive CTL responses: 129.0 SFC per 50,000 cells
[3]; colon patient 601, Week 18
  net SFC of vaccine positive CTL responses: 96.0 SFC per 50,000 cells
[3]; colon patient 602, Week 9
  net SFC of vaccine positive CTL responses: —
[3]; colon patient 602, Week 18
  net SFC of vaccine positive CTL responses: 22.7 SFC per 50,000 cells
[3]; colon patient 603, Week 9
  net SFC of vaccine positive CTL responses: 85.3 SFC per 50,000 cells
[3]; colon patient 603, Week 18
  net SFC of vaccine positive CTL responses: —
[3]; colon patient 604, Week 9
  net SFC of vaccine positive CTL responses: 41.0 SFC per 50,000 cells
[3]; colon patient 604, Week 18
  net SFC of vaccine positive CTL responses: 188.7 SFC per 50,000 cells
[3]; colon patient 605, Week 9
  net SFC of vaccine positive CTL responses: 9.7 SFC per 50,000 cells
[3]; colon patient 605, Week 18
  net SFC of vaccine positive CTL responses: 44.7 SFC per 50,000 cells
[3]; colon patient 606, Week 9
  net SFC of vaccine positive CTL responses: 43.7 SFC per 50,000 cells
[3]; colon patient 606, Week 18
  net SFC of vaccine positive CTL responses: 37.7 SFC per 50,000 cells
[3]; colon patient 607, Week 9
  net SFC of vaccine positive CTL responses: 114.3 SFC per 50,000 cells
[3]; colon patient 607, Week 18
  net SFC of vaccine positive CTL responses: 146.7 SFC per 50,000 cells
[3]; colon patient 608, Week 9
  net SFC of vaccine positive CTL responses: —
[3]; colon patient 608, Week 18
  net SFC of vaccine positive CTL responses: —
[3]; colon patient 609, Week 9
  net SFC of vaccine positive CTL responses: —
[3]; colon patient 609, Week 18
  net SFC of vaccine positive CTL responses: —
